How the values were obtained:
[1] = Inhibition of GBA (unknown origin); design: species or system Homo sapiens
[2] = biological target: T1, Heparanase (Homo sapiens, UniProt Q9Y251); assay: Inhibition of HPSE1 (unknown origin)
T1 sequence (Q9Y251 whole entry): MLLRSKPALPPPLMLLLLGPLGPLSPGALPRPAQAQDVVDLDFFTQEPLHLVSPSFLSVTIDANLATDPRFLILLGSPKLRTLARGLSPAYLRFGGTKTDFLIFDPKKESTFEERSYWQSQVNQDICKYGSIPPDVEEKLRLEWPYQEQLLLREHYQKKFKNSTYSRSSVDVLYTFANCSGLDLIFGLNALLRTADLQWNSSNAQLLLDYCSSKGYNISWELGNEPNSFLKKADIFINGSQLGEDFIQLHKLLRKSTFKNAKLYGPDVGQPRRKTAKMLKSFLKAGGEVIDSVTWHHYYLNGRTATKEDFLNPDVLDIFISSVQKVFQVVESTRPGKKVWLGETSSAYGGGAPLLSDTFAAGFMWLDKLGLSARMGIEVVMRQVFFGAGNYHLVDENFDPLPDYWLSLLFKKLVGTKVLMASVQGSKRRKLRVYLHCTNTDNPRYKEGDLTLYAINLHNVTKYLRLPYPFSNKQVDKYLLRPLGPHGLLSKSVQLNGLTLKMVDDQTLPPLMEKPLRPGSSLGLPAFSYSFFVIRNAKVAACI

[3] = biological target: T2, Beta-glucuronidase (Homo sapiens, UniProt P08236); assay: Inhibition of GUSbeta (unknown origin)
T2 sequence (P08236 whole entry): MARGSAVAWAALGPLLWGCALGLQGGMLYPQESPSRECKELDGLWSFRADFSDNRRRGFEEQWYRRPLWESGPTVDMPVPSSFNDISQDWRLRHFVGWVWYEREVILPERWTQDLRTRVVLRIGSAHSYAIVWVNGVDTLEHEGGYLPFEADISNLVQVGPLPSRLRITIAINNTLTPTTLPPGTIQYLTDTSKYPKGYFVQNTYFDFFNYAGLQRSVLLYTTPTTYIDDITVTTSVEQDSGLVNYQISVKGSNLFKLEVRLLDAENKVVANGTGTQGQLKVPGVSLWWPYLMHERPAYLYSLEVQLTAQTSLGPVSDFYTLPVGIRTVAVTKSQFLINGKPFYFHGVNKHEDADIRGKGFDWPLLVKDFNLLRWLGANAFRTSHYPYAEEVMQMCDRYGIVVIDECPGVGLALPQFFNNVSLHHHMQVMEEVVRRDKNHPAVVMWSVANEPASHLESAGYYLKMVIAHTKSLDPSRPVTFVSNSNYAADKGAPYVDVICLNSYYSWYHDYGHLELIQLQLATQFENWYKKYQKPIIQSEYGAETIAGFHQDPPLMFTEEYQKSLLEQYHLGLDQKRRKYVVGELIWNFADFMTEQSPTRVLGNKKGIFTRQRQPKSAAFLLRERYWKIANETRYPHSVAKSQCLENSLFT

Row | Structure (SMILES) | IC50 [1] | IC50 [2] | IC50 [3]
1 | CO[C@H]1[C@H](O)[C@@H](O)c2nc(CCc3cccc(Oc4ccccc4)c3)cn2[C@@H]1C(=O)O | 0.439 µM | – | –
2 | CC(C)O[C@H]1[C@H](O)[C@@H](O)c2nc(CCc3cccc(Oc4ccccc4)c3)cn2[C@@H]1C(=O)O | 38.6 µM | 0.621 µM | 41.8 µM
3 | O=C(O)[C@@H]1[C@@H](OCCc2ccccc2)[C@H](O)[C@@H](O)c2nc(CCc3cccc(Oc4ccccc4)c3)cn21 | 1.25 µM | 0.057 µM | 7.21 µM

Reference: ChEMBL document CHEMBL5584204, “Discovery of a novel tetrahydroimidazo[1,2-a]pyridine-5-carboxylic acid derivative as a potent and selective heparanase-1 inhibitor utilizing an improved synthetic approach” (Bioorg Med Chem Lett, 2024)
